Measurements reported in US20250145665A1, “MACROCYCLIC PEPTIDES USEFUL AS MODULATORS OF TNF ALPHA” (Bristol-Myers Squibb Company, priority 2023, published 2025).
Starred links: 1 amine or outer side, 2 acyl side, 3 side chain; linkers in the order of their positions; H or OH if unused. Positions of bridges follow the written chain, without caps; N, C: chain ends. Non-standard residues stand in square brackets, D forms with d. Residues, ends and D or L forms follow the SMILES beside them. ξ: configuration not given here. *: point of attachment. Bip(4'-NHCO-C6H4-3-CH2COOH) = N[C@@H](Cc1ccc(-c2ccc(NC(=O)c3cccc(CC(=O)O)c3)cc2)cc1)C(=O)O; Bip(4'-NHCO-C6H4-4-CH2COOH) = N[C@@H](Cc1ccc(-c2ccc(NC(=O)c3ccc(CC(=O)O)cc3)cc2)cc1)C(=O)O; Bip(4'-NH) = O=C([C@H](Cc1ccc(-c2ccc(N[*:3])cc2)cc1)N[*:1])[*:2]; Indazole3carbonyl(1-CH2COOH) = O=C(O)Cn1nc(C(=O)*)c2ccccc21; Bip(4'-COOH) = N[C@@H](Cc1ccc(-c2ccc(C(=O)O)cc2)cc1)C(=O)O; Bip(4'-NHAc) = CC(=O)Nc1ccc(-c2ccc(C[C@H](N)C(=O)O)cc2)cc1; X83 = N=C(NCCC[C@@H](N[*:1])C(=O)[*:2])NCCc1ccc(O)c(O)c1; X58 = N=C(NCCC[C@@H](N[*:1])C(=O)[*:2])NCCc1cccc(N)c1; Ala(morpholin-4-yl) = N[C@@H](CN1CCOCC1)C(=O)O; Phe(3-CONH2) = NC(=O)c1cccc(C[C@H](N)C(=O)O)c1; Bip = N[C@@H](Cc1ccc(-c2ccccc2)cc1)C(=O)O; 2Pal = N[C@@H](Cc1ccccn1)C(=O)O; Tic = O=C(O)[C@@H]1Cc2ccccc2CN1; 2Thi = N[C@@H](Cc1cccs1)C(=O)O; Cha = N[C@@H](CC1CCCCC1)C(=O)O; Chg = N[C@H](C(=O)O)C1CCCCC1; Tle = CC(C)(C)[C@H](N)C(=O)O; ξP = O=C(O)C1CCCN1; Sar = CNCC(=O)O

biological target: TNFα (Homo sapiens, UniProt P01375); assay: TNF-Induced HEK-Blue Assay; type: cell-based; settings: not given
Sequence (P01375 77-233 limits assumed): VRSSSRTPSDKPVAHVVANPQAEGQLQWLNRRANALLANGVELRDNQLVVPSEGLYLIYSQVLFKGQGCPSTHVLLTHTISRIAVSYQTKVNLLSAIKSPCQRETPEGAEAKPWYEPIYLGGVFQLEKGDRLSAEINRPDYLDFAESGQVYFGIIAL

Row | Structure (SMILES) | IC50 [nM]
1 | CC(C)C[C@@H]1NC(=O)[C@H](CCCNC(=N)N)NC(=O)[C@H](C(C)C)NC(=O)C2CCCN2C(=O)[C@H](C(C)C)NC(=O)[C@@H](CCCNC(=N)NCCc2ccc(O)c(O)c2)NC(=O)[C@H](CC(=O)O)NC(=O)[C@@H]2CCCN2C(=O)CN(C)C(=O)[C@H](Cc2ccc(-c3ccc(NC(=O)c4nn(CC(=O)O)c5ccccc45)cc3)cc2)NC(=O)[C@H](Cc2ccc(-c3ccccc3)cc2)NC(=O)[C@H](CN2CCOCC2)NC(=O)CSC[C@@H](C(=O)NCC(N)=O)NC1=O (stereo partly shown) [Example 410] ({CH2CO}-[Ala(morpholin-4-yl)][Bip][Bip(4'-NH)](Indazole3carbonyl(1-CH2COOH))[Sar]PD[X83]V[ξP]VRLCG-NH2; thioether N-13) | 200 to 2000
2 | CC[C@H](C)[C@@H]1NC(=O)[C@@H](CCCNC(=N)N)NC(=O)[C@H](CC(=O)O)NC(=O)[C@H](Cc2cnc[nH]2)NC(=O)CN(C)C(=O)[C@H](Cc2ccc(-c3ccc(NC(=O)c4nn(CC(=O)O)c5ccccc45)cc3)cc2)NC(=O)[C@H](Cc2ccc(-c3ccc(C(=O)O)cc3)cc2)NC(=O)[C@H](CC2CCCCC2)NC(=O)CSC[C@@H](C(=O)NCC(N)=O)NC(=O)[C@H](CC(C)C)NC(=O)[C@H](Cc2cnc[nH]2)NC(=O)[C@H](C(C)C)NC(=O)[C@@H]2Cc3ccccc3CN2C1=O [Example 361] ({CH2CO}-[Cha][Bip(4'-COOH)][Bip(4'-NH)](Indazole3carbonyl(1-CH2COOH))[Sar]HD[dR]I[Tic]VHLCG-NH2; thioether N-13) | < 50
3 | CC(C)C[C@@H]1NC(=O)[C@H](CCCNC(=N)N)NC(=O)[C@H](C(C)C)NC(=O)C2CCCN2C(=O)[C@H](C(C)C)NC(=O)[C@@H](CCCNC(=N)NCCc2cccc(N)c2)NC(=O)[C@H](CC(=O)O)NC(=O)[C@@H]2CCCN2C(=O)CN(C)C(=O)[C@H](Cc2ccc(-c3ccc(NC(=O)c4nn(CC(=O)O)c5ccccc45)cc3)cc2)NC(=O)[C@H](Cc2ccc(-c3ccccc3)cc2)NC(=O)[C@H](CN2CCOCC2)NC(=O)CSC[C@@H](C(=O)NCC(N)=O)NC1=O (stereo partly shown) [Example 405] ({CH2CO}-[Ala(morpholin-4-yl)][Bip][Bip(4'-NH)](Indazole3carbonyl(1-CH2COOH))[Sar]PD[X58]V[ξP]VRLCG-NH2; thioether N-13) | 50 to 200

same assay, conditions: HEK-Blue-CD40L cells, NF-kB-driven secreted alkaline phosphatase reporter; TNFα 0.5 ng/ml; 18 h; read-out: TNF induced HEK-Blue assay IC50 value

Row | Structure (SMILES) | IC50 [nM]
4 | CC(C)C[C@@H]1NC(=O)[C@H](Cc2cccs2)NC(=O)[C@H](C(C)C)NC(=O)[C@@H]2CCCN2C(=O)[C@H](C(C)C)NC(=O)[C@@H](CCCNC(=N)N)NC(=O)[C@H](CC(=O)O)NC(=O)[C@H](Cc2ccccn2)NC(=O)CN(C)C(=O)[C@H](Cc2ccc(-c3ccc(NC(=O)c4cccc(CC(=O)O)c4)cc3)cc2)NC(=O)[C@H](Cc2ccc(-c3ccc(C(=O)O)cc3)cc2)NC(=O)[C@H](CC2CCCCC2)NC(=O)CSC[C@@H](C(=O)NCC(N)=O)NC1=O [Example 613] ({CH2CO}-[Cha][Bip(4'-COOH)][Bip(4'-NHCO-C6H4-3-CH2COOH)][Sar][2Pal]D[dR]VPV[2Thi]LCG-NH2; thioether N-13) | 50 to 200
5 | CC(=O)Nc1ccc(-c2ccc(C[C@@H]3NC(=O)[C@H](Cc4ccc(-c5ccccc5)cc4)NC(=O)[C@H](CN4CCOCC4)NC(=O)CSC[C@@H](C(=O)NCC(N)=O)NC(=O)[C@H](CC(C)C)NC(=O)[C@H](Cc4cccc(C(N)=O)c4)NC(=O)[C@H](C4CCCCC4)NC(=O)[C@@H]4CCCN4C(=O)[C@H](C(C)C)NC(=O)[C@@H](CCCNC(=N)N)NC(=O)[C@H](CC(=O)O)NC(=O)[C@H](Cc4ccccc4)NC(=O)CN(C)C3=O)cc2)cc1 [Example 459] ({CH2CO}-[Ala(morpholin-4-yl)][Bip][Bip(4'-NHAc)][Sar]FD[dR]VP[Chg][Phe(3-CONH2)]LCG-NH2; thioether N-13) | 50 to 200

The remaining lines, values ahead:

Row | IC50 [nM] | Structure (SMILES)
6 | 50 to 200 | CC(C)C[C@@H]1NC(=O)[C@H](Cc2cccs2)NC(=O)[C@H](C(C)C)NC(=O)[C@@H]2CCCN2C(=O)[C@H](C(C)C)NC(=O)[C@@H](CCCNC(=N)N)NC(=O)[C@H](CC(=O)O)NC(=O)[C@H](Cc2ccccn2)NC(=O)CN(C)C(=O)[C@H](Cc2ccc(-c3ccc(NC(=O)c4cccc(CC(=O)O)c4)cc3)cc2)NC(=O)[C@H](Cc2ccc(-c3ccccc3)cc2)NC(=O)[C@H](CC2CCCCC2)NC(=O)CSC[C@@H](C(=O)NCC(N)=O)NC1=O [Example 618] ({CH2CO}-[Cha][Bip][Bip(4'-NHCO-C6H4-3-CH2COOH)][Sar][2Pal]D[dR]VPV[2Thi]LCG-NH2; thioether N-13)
7 | < 50 | CC[C@H](C)[C@@H]1NC(=O)[C@@H](CCCNC(=N)N)NC(=O)[C@H](CC(=O)O)NC(=O)[C@H](Cc2cnc[nH]2)NC(=O)CN(C)C(=O)[C@H](Cc2ccc(-c3ccc(NC(=O)c4ccc(CC(=O)O)cc4)cc3)cc2)NC(=O)[C@H](Cc2ccc(-c3ccccc3)cc2)NC(=O)[C@H](C(C)(C)C)NC(=O)CSC[C@@H](C(=O)NCC(N)=O)NC(=O)[C@H](CC(C)C)NC(=O)[C@H](Cc2cnc[nH]2)NC(=O)[C@H](C(C)C)NC(=O)[C@@H]2CCCN2C1=O [Example 485] ({CH2CO}-[Tle][Bip][Bip(4'-NHCO-C6H4-4-CH2COOH)][Sar]HD[dR]IPVHLCG-NH2; thioether N-13)
